Holding throughout (test): Calcein AM viability assay, dilution series
Holding throughout (format): cell-based, human
Conditions in all cases: 50% inhibition of calcein AM staining; 16-point two-fold dilution; two days

In experiment [1] the test system is BJ-TERT/LT/ST/RAS^V12 cells. Here is the method: Described here is work carried out to identify compounds with increased potency or activity in the presence of hTERT, LT, ST, E6, E7 or RAS^V12. Although the work described herein made use of hTERT, LT, ST, E6, E7 and RAS^V12 as transforming genes, future studies can make use of a wide variety of cancer-associated alleles using this methodology in order to define the signaling networks that involve many oncogenes and tumor suppressors. […] Cell viability was measured using the dye calcein acetoxymethyl ester (calcein AM) (Wang et al., 1993, Hum. Immunol. 37, 264-270), which is a non-fluorescent compound that freely diffuses into cells. […]
Calcein acetoxylmethyl ester (AM) is a cell membrane-permeable, non-fluorescent compound that is cleaved by intracellular esterases to form the anionic, cell-impermeable, fluorescent compound calcein. […] Total fluorescence intensity in each well was recorded on a Packard Fusion platereader, and converted to a percent inhibition of signal by subtracting the instrument background and dividing by the average signal obtained when cells were not treated with any compound. […]
Mean RFU (relative fluorescence units) for untreated cells was calculated by averaging columns 1, 2, and 23 (wells with cells but lacking compounds). The calcein background was calculated by averaging column 24 (wells with calcein, but lacking cells). […]

The subject of experiment [2] is TIP5/TERT/E6/E7/ST/RAS^V12 cells. From the text:
(§1) Described here is work carried out to identify compounds with increased potency or activity in the presence of hTERT, LT, ST, E6, E7 or RAS^V12. Although the work described herein made use of hTERT, LT, ST, E6, E7 and RAS^V12 as transforming genes, future studies can make use of a wide variety of cancer-associated alleles using this methodology in order to define the signaling networks that involve many oncogenes and tumor suppressors. Engineered cell lines with these genetic elements were used to screen 23,550 compounds, including 20,000 compounds from a combinatorial library, 1,990 compounds from the National Cancer Institute diversity collection, and 1,540 biologically active known compounds that were selected and purchased by Applicant and formatted into a screenable collection. The primary screen tested (in quadruplicate) the effect of treating tumorigenic BJ-TERT/LT/ST/RAS^V12 engineered tumorigenic cells with each compound for 48 hours at a concentration of 4 μg/mL, corresponding to 10 μM for a compound with a molecular weight of 400, which is the approximate median molecular weight of the libraries. Cell viability was measured using the dye calcein acetoxymethyl ester (calcein AM) (Wang et al., 1993, Hum. Immunol. 37, 264-270), which is a non-fluorescent compound that freely diffuses into cells. In live cells, calcein AM is cleaved by intracellular esterases, forming the anionic fluorescent derivative calcein, which cannot diffuse out of live cells. […] The IC50 value (concentration required to inhibit 50% of the calcein AM signal) was calculated for each compound in each cell line (Table 1). […] Following is a more detailed analysis of these nine compounds.
(§2) Calcein acetoxylmethyl ester (AM) is a cell membrane-permeable, non-fluorescent compound that is cleaved by intracellular esterases to form the anionic, cell-impermeable, fluorescent compound calcein. Viable cells are stained by calcein because of the presence of intracellular esterases and because the intact plasma membrane prevents fluorescent calcein from leaking out of cells (Wang et al., 1993, supra). Cells were seeded in 384-well plates using a Zymark Sciclone ALH, treated with each compound in triplicate at 4 μg/mL in the primary screen for two days, washed with phosphate-buffered saline on a Packard Minitrak with a 384-well washer and incubated for four hours with 0.7 μg/mL calcein (Molecular Probes). Total fluorescence intensity in each well was recorded on a Packard Fusion platereader, and converted to a percent inhibition of signal by subtracting the instrument background and dividing by the average signal obtained when cells were not treated with any compound.
(§3) Compounds to be retested were purchased from manufacturers. Stocks were prepared in DMSO at a concentration of 1 mg/ml in 384-well polypropylene plates with a 16-point, two-fold dilution dose curve of each compound in a column, in duplicates. Column 1-2 and 23-24 were left empty for controls. Daughter retest plates were prepared from stock retest plate by diluting 66.6 fold in DMEM in 384-well deep-deep well plates (4.5 μl transfer into 300 μl). Cells were seeded at a density of 6000 per well in 40 μl, and 20 μl was added from a daughter retest plate. The plates were incubated for two days at 37° C. with 5% CO2.
(§4) Mean RFU (relative fluorescence units) for untreated cells was calculated by averaging columns 1, 2, and 23 (wells with cells but lacking compounds). The calcein background was calculated by averaging column 24 (wells with calcein, but lacking cells). Percentage inhibition of each well was calculated as [1−(RFU−calcein control)/(untreated cell−calcein control)*100]. Compounds causing at least 50% inhibition of calcein staining in the primary screen were tested for selectivity towards BJ-TERT/LT/ST/RAS^V12 engineered tumor cells by testing in BJ primary and BJ-TERT/LT/ST/RAS^V12 cells at a range of concentrations. Selective compounds were retested in all engineered cell lines.

Another experiment has as its system BJ primary cells.
Excerpt: as §1, §2, §3, §4

Experiment [3] relates to TIP5/TERT/LT/ST/RAS^V12 cells.
Excerpt: as §1, §2, §3, §4

Experiment [4] concerns BJ-TERT/LT/RAS^V12/ST cells.
Excerpt: as §1, §2, §3, §4

The subject of another experiment is BJ-TERT/LT/ST cells.
Excerpt: as §1, §2, §3, §4

A further experiment deals with TIP5/TERT/E6/E7/ST cells.
Excerpt: as §1, §2, §3, §4

The test system of another experiment is TIP5/TERT/LT cells.
Excerpt: as §1, §2, §3, §4

For another experiment, the system named is TIP5/TERT cells.
Excerpt: as §1, §2, §3, §4

A further experiment concerns TIP5/TERT/E6/E7 cells.
Excerpt: as §1, §2, §3, §4

Each structure is given as a SMILES string. Some results are limits rather than exact numbers.

As to `Cc1c2ccccc2c(CSC(=N)N)c2ccccc12.Cl` [NSC146109], the “IC50 BJ-TERT/LT/ST/Ras^v12” value in experiment [1] was 2.5 mg/L. For the same compound, the “IC50 TIP5-TERT/E6E7/ST/Ras^v12” value in experiment [2] is 2.5 mg/L. Further, the “IC50 BJ” value in the experiment with BJ primary cells was more than 5 mg/L. Also, in experiment [3], the “IC50 TIP5-TERT/LT/ST/Ras^v12” value was 2.5 mg/L. The “IC50 BJ-TERT/LT/Ras^v12/ST” value in experiment [4] is 2.5 mg/L. The “IC50 BJ-TERT/LT/ST” value in the experiment on BJ-TERT/LT/ST cells was 2.5 mg/L. The “IC50 TIP5-TERT/E6E7/ST” value in the experiment with TIP5/TERT/E6/E7/ST cells is 2.5 mg/L. In addition, the “IC50 TIP5-TERT/LT” value in the experiment on TIP5/TERT/LT cells was more than 5 mg/L. Further, the “IC50 TIP5-TERT” value in the experiment with TIP5/TERT cells is more than 5 mg/L. Moreover, the “IC50 TIP5-TERT/E6E7” value in the experiment with TIP5/TERT/E6/E7 cells is 2.5 mg/L.

(Values after US20070161644A1, “Erastin analogs and uses thereof” (priority 2005, published 2007).)
